Measurements taken from PMC4070910, “Cathepsin S Signals via PAR2 and Generates a Novel Tethered Ligand Receptor Agonist” (PLoS ONE, 2014).
Entries after “also recorded” stand apart in the source; their conditions may differ.

Legend:
PAR2 [1] = conditions: cited from earlier work; for PAR2 activation (in words): in vitro, plant proteases
Excerpt: PAR2 signaling has been implicated in the development of inflammatory and bowel diseases, asthma, itch and pain. The receptor is expressed on many types of cells including keratinocytes, sensory neurons, fibroblasts, endothelial cells, and inflammatory cells, [3]. Consistent with this broad expression, PAR2 is involved in numerous physiologic and pathophysiologic processes in response to both endogenous and exogenous proteases.

human PAR2 [2] = test: Fura-2 calcium imaging in HeLa cells transfected with PAR2 cDNA; type: cell-based; conditions: for Concentration-effect curve, calcium-dependent response (in words): peptides 1 nM - 1 mM, triplicate, Fura-2 ratiometric imaging
Protocol: Human PAR2 cDNA was cloned as an Xho I-Hind III fragment (1206 bp) into pcDNA3.1(−). 10 µg of DNA were diluted into 0.5 ml of DMEM and mixed with 0.5 ml of DMEM containing 10 µl of Lipofectamine 2000 transfection reagent and incubated at room temperature for 20 minutes. HeLa cells were grown to confluence, trypsinized and 1×10^6 cells were pelleted in a 15 ml tube by centrifugation at 1000 rpm for 5 minutes. The DMEM-Lipofectamine 2000-DNA mixture (1 ml) was added to the cell pellet, resuspended gently and incubated at room temperature for 20 minutes. Four ml of complete DMEM with 10% FBS were added to the tube, mixed by inverting the tube several times, plated into a 96-well glass bottom plate at 20,000 cells/well, and placed in a 37°C CO2 incubator. HeLa cells transfected with vector alone or salmon sperm DNA (shown in the figures) were plated as a control. The medium was aspirated two days after transfection. Fura-2 was used as a ratiometric calcium-sensitive indicator as follows. 100 µl of complete DMEM containing 2 µM of Fura-2 were added to each well and left at room temperature in the dark for 1 hr. Following loading with Fura-2, the medium was aspirated and replaced with 90 µl of HEPES-buffered saline (20 mM HEPES, 115 mM NaCl, 5.4 mM KCl, 2 mM CaCl2, 0.8 mM MgCl2, 13.8 mM glucose, pH 7.4).
Imaging was performed using a Zeiss Axiovert 200 M microscope platform equipped with a flipping filter wheel for ratiometric imaging. Axiovision software, version 4.6 was used for image analysis of the cells which were excited at 340 nm and 380 nm. Ten µl of peptide agonist were added at 20 seconds after the start of the excitation procedure. Images were taken every 5 seconds, including at zero time, during a 3-minute period or longer if required. The software later analyzed all images taken during each excitation period. Typically, ratiometric changes were measured in 10–20 cells in each image. An average of the fluorescence of the cells in each image was calculated and plotted against time in seconds.
HeLa cells transfected with PAR2 cDNA were subjected to ratiometric imaging as described above with PAR2 peptides, SLIGRL, KVDGTS, and SLIGKVDGTS in addition to the reverse peptides LRGILS and STGDVK at concentrations from 1 nM - 1 mM. Each of the concentration-dependent readings was performed in triplicate. Maximum intensities at each of the dilutions were calculated and plotted against concentration using GraphPad/PRISM software version 6.0 (Irvine, CA). Error bars represent +/−SEM.

[3] = system: PKC (βII Ser660) phosphorylation in PAR2-transfected HeLa cells; test: Western blot for p-PKC (Ser660) in PAR2-transfected HeLa cells; type: cell-based, human; conditions: 10 minutes, room temperature; SLIGRL 10 µM, SLIGKVDGTS 10 µM, KVDGTS 100 µM, cathepsin S 1 µM
Protocol: HeLa cells were transfected with PAR2 plasmid DNA as described above. Untransfected HeLa cells were plated as a control. Forty-eight hours after transfection, cells were rinsed with PBS three times. Transfected HeLa cells were incubated with either SLIGRL (10 µM), SLIGKVDGTS (10 µM), KVDGTS (100 µM), or cathepsin S (1 µM) at room temperature for 10 minutes. Untransfected HeLa cells were treated with SLIGRL (10 µM) in a similar manner. A subset of transfected HeLa cells remained untreated and served as a negative control. After incubation, cells were harvested, pelleted and lysed by sequential freeze-thaw cycles. Cell lysates were centrifuged at 4°C for 15 minutes. Supernatants were collected and protein concentrations were determined by Bradford assay. Equal amounts of cell lysates were loaded onto NuPAGE Novex Bis-Tris mini gels, electrophoresed and transferred to nitrocellulose membranes using standard protocols. The blot was first probed with rabbit anti-phospho-PKC (βII Ser660) antibody (Cell Signalling Technology, Danvers, MA), and later reprobed with a mouse anti-actin antibody to identify the control actin band at 42 kDa. Primary antibodies were labeled with HRP-conjugated donkey anti-rabbit antibody and HRP-conjugated donkey anti-mouse antibody, respectively, followed by detection of the position of the antigen on the blot.

human PAR2 [4] = test: IP1 (IP-One HTRF) assay in PAR2-transfected HeLa cells; type: cell-based; conditions: 1 hour, 37°C; KVDGTS 100 µM, SLIGRL 10 µM, cathepsin S 1 µM; KVDGTS and SLIGRL after subtracting baseline values; cathepsin S 'in this particular experiment'
Protocol: To determine the effect of PAR2 activation on Gq stimulation, we measured IP1, a downstream metabolite of IP3, using the IP-One HTRF assay from Cis Bio, Medford, MA. HeLa cells were transfected with salmon sperm DNA or PAR2 cDNA as described above, plated in 10 cm culture dishes and incubated at 37°C with 5% CO2. After 24 hours, the cells were trypsinized, counted, plated into 96-well plates at 80,000 cells/well and incubated for another 24 hours. The medium was replaced with a stimulation buffer containing LiCl, per the instructions of the manufacturer. Ligands, including cathepsin S (1 µM), KVDGTS (100 µM) and SLIGRL (10 µM) were added to wells and incubated at 37°C for 1 hour and IP1 levels determined. This assay was performed on multiple wells containing each ligand on three occasions. Error bars represent SEM.

PAR2 [5] = conditions: cited from earlier work
Excerpt: Proteases can activate PARs but it has been hypothesized that they can also inactivate them. […] As the cathepsin S cleavage sites identified here are downstream o ...

cathepsin S = test: Cathepsin S digestion of the human PAR2 N-terminal peptide (LC/MS/MS); type: biochemical; conditions: cathepsin S 1 µM, pH 7.0, 37°C, 20 minutes; MS/MS sequencing
Protocol: Recombinant human cathepsin S was produced as follows. The human cathepsin S proprotein coding region was isolated by PCR using the forward and reverse primers […] CCTG and […] and a template of plasmid DNA containing the entire coding sequence of human cathepsin S. The PCR product was cut with Nco I and Xho I, and cloned into the pTYB4 expression vector from New England Biolabs for expression in E.coli. Cells were grown in LB medium induced with 0.3 mM IPTG, harvested by centrifugation, resuspended in lysis buffer A (0.5 M NaCl, 0.05 M Tris, 5 mM EDTA, pH 8.0) and lysed in a French press. The lysate was centrifuged and the protein was found predominantly in inclusion bodies which were dissolved in buffer B (10 mM DTT and 8 M urea), and refolded in the presence of buffer B containing 0.7 M L-arginine, 0.01 M glutathione, 0.001 M glutathione disulfide, and 0.005 M EDTA as described. […] The specific activity of cathepsin S was assayed using Z-VVR-AMC in fluorimetric and Z-FR-pNA in colorimetric assays[22] and determined to be 10,000 mU/mg protein.
A peptide comprising the N-terminus of PAR2, […], was dissolved in 50 mM Tris, pH 7.0, 0.1 M NaCl, 0.1 mM EDTA, and 0.01% Tween-20 to a concentration of 100 mM. […] The reaction samples were analyzed by the Harvard Microchemistry & Proteomics Analysis Facility (Cambridge, MA). […]

[6] = system: cathepsin S in keratinocytes; conditions: cited from earlier work
Excerpt: We have identified a new peptide ligand generated by cathepsin S cleavage of PAR2. […] Our findings support a mechanism by which an N-terminal tethered ligand generated by cathepsin S cleavage might propagate PAR2 signaling in keratinocytes, or other target cells, surrounding a primary focus of inflammation. A possible scenario with respect to cutaneous inflammation could be as follows: IFN-γ, ...

## ficin
PAR2 [1]
  PAR2 activation (in words): supporting activation

## STGDVK [KVDGTS reverse peptide, reference compound]
Human PAR2 [2]
  Concentration-effect curve, calcium-dependent response (in words): not active

## SLIGRL [positive control, reference compound]
[3]
  PKC Ser660 phosphorylation (in words): weaker effect
PAR2 [1]; primary keratinocytes and various cell lines, no reference given
  intracellular calcium mobilization (in words): provokes transient intracellular calcium mobilization
Human PAR2 [4]
  IP1 level: ~66 nM
Human PAR2 [2]; PAR2-transfected HeLa, after cathepsin S, papain or trypsin, up to 60 minutes, room temperature
  calcium response to the substance as second agent after protease (in words): failed to induce a calcium response at any time up to 60 minutes
Human PAR2 [2]
  Concentration-effect curve, calcium-dependent response (in words): curves for SLIGRL and SLIGKVDGTS overlapped
Human PAR2 [2]; summary of these studies (discussion)
  concentration at which active/effective: 10 µM

## bromelain
PAR2 [1]
  PAR2 activation (in words): supporting activation

## trypsin [reference compound]
PAR2 [5]
  PAR2 cleavage site preference (in words): cleave PAR2 primarily following arginine residues
Human PAR2 [2]; PAR2-transfected HeLa, KVDGTS 100 µM, cathepsin S 2 µM, papain 2 µM, trypsin 10 nM, second agent after up to 60 minutes, room temperature
  effect as first agent on calcium response to second agent (in words): failed to induce a calcium response at any time up to 60 minutes

## SLIGKVDGTS [decapeptide which encompasses SLIGKV and KVDGTS]
[3]
  PKC Ser660 phosphorylation (in words): weaker effect
Human PAR2 [2]
  Concentration-effect curve, calcium-dependent response (in words): curves for SLIGRL and SLIGKVDGTS overlapped; also recorded: activity comparable to that of SLIGRL

## LRGILS [reverse peptide of SLIGRL, negative control, reference compound]
Human PAR2 [2]
  Concentration-effect curve, calcium-dependent response (in words): not active

## KVDGTSHVTGKGVT
Cathepsin S
  cleavage points (in words): next most common sequence results in G at the P1 position

## IFN-γ: mediator of inflammation
[6]
  induction of cathepsin S (in words): potent inducer of cathepsin S in keratinocytes
